Assay results as given in patent US10493164B2, “Method for preventing and treating adhesions” (Joint Stock Company “Pharmasyntez”, priority 2011, dated 2019).

Tested on: Adhesions in the peritoneal cavity
Test: Adhesions in the peritoneal cavity generated in rats by caecum injury and abdominal wall scarification
Type: in vivo, Wistar rats
Procedure: (§1) Adhesions in the peritoneal cavity were generated in laboratory animals (Wistar rats, 9 months of age, weight of 220-250 g) by injuring the surface of caecum and abdominal wall scarification in the injured area. The study was conducted in compliance with the principles of the European Convention for the Protection of Vertebrate Animals used for Experimental and other Scientific Purposes (Strasbourg, France, 1986), as well as with regulations for humane treatment specified in Guidance for Proper Conduct of Animal Experiments (Attachment to Order No. 755 of the Ministry of Health of the USSR, dated Aug. 12, 1977).
Ten laboratory animals were used in this study. They were divided into 2 groups: the experimental group and the control group.
The calculation was based on the minimum volume of solution required to moisten the peritoneal surface (diZerega G. S. Peritoneum, peritoneal healing and adhesion formation/G. S. diZerega//in: Perotoneal surgery: Ed. G. S. diZerega.—Berlin—Heidelberg—New York: Springer, 2006.—P. 3-38), and the concentration was calculated on the basis of IC50 in the boundary layer of cells. The control animals received a corresponding amount of normal saline solution.
On Day 28 after the abdominal cavity being injured, all animals were autopsied for the examination of abdominal cavity organs and the assessment of the severity and incidence of adhesions, deformation of abdominal cavity organs and distribution of different types of adhesions. The severity of adhesions was scored according to micro- and macroscopic adhesion scales [Micronized purified flavonoid fraction may prevent formation of intraperitoneal adhesions in rats//H. G. Yilmaz, I. H. Tacyildiz, C. Keles et al.//Fertil. Steril.—2005.—Vol. 84, Suppl. 2.—P 1083-1087].
The visceral peritoneum and abdominal organs involved in adhesion formation were examined histologically after fixation in FineFIX solution (Milestone), paraffin filling, staining with hematoxylin-eosin and van Gieson's staining.
as §1, with “surface of the caecum and” for “surface of caecum and”
Thirty laboratory animals were used in this study. They were divided into 2 groups: the experimental group and the control group. […]

Row | Molecule | signs of adhesions in histological section of intestinal wall (van Gieson's staining) (Example 5, FIG. 1, abdominal trauma zone and area of postoperative suture) | cases of intestinal wall adhesions (Example 5: 3 ml sterile solution 10 μg/ml injected once before celiorrhaphy, autopsy Day 28) | severity of adhesion formation (score, micro- and macroscopic adhesion scales) (Example 5: 3 ml, 10 μg/ml, once, Day 28, control scored 7, p<0.01) | signs of adhesions in histological section of intestinal wall (van Gieson's staining) (Example 6, FIG. 4, 30 days after modelling)
1 | C[S+]([O-])c1ccc(-c2nc(-c3ccc(F)cc3)c(-c3ccncc3)[nH]2)cc1 (stereo not shown) [SB203580, 4-(4-fluorophenyl)-2-(4-methylsulfinylphenyl)-5-(4-pyridyl)-1H-imidazole] | No signs of adhesions | No cases of intestinal wall adhesions | 2 | –
2 | Conjugates of Polyvinylimidazole and 4-(4-Fluorinephenyl)-2-(4-Methylsulphinylphenyl)-5-(4-Pyridyl)-1H-Imidazole [Example 3] | – | – | – | No signs of adhesions
